The source of these data is US8609847B2, “Dihydroquinolinone derivatives” (Taisho Pharmaceutical Co., Ltd, priority 2009, dated 2013).

The target in this assay is T1, human H3 receptor (Homo sapiens, UniProt Q9Y5N1).
T1 construct: purchased Perkin Elmer ES-392-M400UA; host or cells: CHO-K1 cells (recombinant expression), membrane preparation
Briefly: H3 Receptor Binding Test. The settings on record: 50% inhibition of R(−)-α-methyl[3H]histamine (1 nM) binding; membrane preparation of human H3 receptor-expressing CHO-K1 cells. Here is the method: A membrane preparation of human H3 receptor-expressing CHO-K1 cells (Perkin Elmer, ES-392-M400UA, 15 μg protein/200 μl), R(−)-α-methyl[^3H]histamine (Amersham, TRK-1017, specific activity: 1.74 TBq/mmol, 1 nM) and a test drug were reacted at room temperature for 1 hour. After completion of the reaction, the reaction mixture was subjected to suction filtration through a 0.3% polyethyleneimine-treated glass filter (GF/C). The glass filter was washed five times with 50 mM Tris-HCl washing solution (pH 7.4) containing 5 mM EDTA. After washing, the glass filter was dried and a scintillator was added thereto, followed by measurement of radioactivity on the filter using a liquid scintillation counter.
Binding of R(−)-α-methyl[^3H]histamine in the presence of 10 μM R(−)-α-methylhistamine was defined as non-specific binding, and the difference between total binding and non-specific binding of R(−)-α-methyl[^3H]histamine was defined as specific binding of R(−)-α-methyl[^3H]histamine. A fixed concentration (1 nM) of R(−)-α-methyl[^3H]histamine was reacted under the above conditions with each test drug at various concentrations to obtain an inhibition curve. The inhibition curve was used to determine the concentration (IC50) of each test drug required for 50% inhibition of R(−)-α-methyl[^3H]histamine binding.

T1 sequence (Q9Y5N1 whole entry): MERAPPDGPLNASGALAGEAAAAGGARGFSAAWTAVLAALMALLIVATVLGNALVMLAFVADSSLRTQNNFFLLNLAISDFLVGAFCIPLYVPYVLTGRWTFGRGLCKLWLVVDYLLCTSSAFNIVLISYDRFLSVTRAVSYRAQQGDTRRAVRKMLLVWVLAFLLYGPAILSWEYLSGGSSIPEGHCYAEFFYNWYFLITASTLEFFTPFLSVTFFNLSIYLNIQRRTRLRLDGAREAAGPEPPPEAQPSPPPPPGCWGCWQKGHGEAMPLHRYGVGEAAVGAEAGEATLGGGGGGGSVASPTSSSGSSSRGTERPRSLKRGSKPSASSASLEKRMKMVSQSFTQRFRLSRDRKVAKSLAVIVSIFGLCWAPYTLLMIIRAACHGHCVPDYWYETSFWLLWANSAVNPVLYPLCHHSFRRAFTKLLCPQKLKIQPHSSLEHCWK

With `C[C@@H]1CCCN1CCCOc1ccc2c(c1)CCC(=O)N2c1ccc(C#N)cc1` [Compound No. 1, 4-[6-{3-[(2R)-2-methylpyrrolidin-1-yl]propoxy}-2-oxo-3,4-dihydroquinolin-1(2H)-yl]benzonitrile], the 50% inhibitory concentration (IC50) (in general, the midpoint of a concentration-inhibition curve) worked out at 4.4 nM.

`C[C@@H]1CCCN1CCCOc1ccc2c(c1)CCC(=O)N2c1ccccc1` [Compound No. 2, 6-{3-[(2R)-2-methylpyrrolidin-1-yl]propoxy}-1-phenyl-3,4-dihydroquinolin-2(1H)-one]: the IC50 is 0.79 nM.

Consider `Cc1ccc(N2C(=O)CCc3cc(OCCCN4CCC[C@H]4C)ccc32)cc1` [Compound No. 3, 1-(4-methylphenyl)-6-{3-[(2R)-2-methylpyrrolidin-1-yl]propoxy}-3,4-dihydroquinolin-2(1H)-one], for which the concentration for half-maximal inhibition (IC50) amounted to 1 nM.

`COc1ccc(N2C(=O)CCc3cc(OCCCN4CCC[C@H]4C)ccc32)cc1` [Compound No. 4, 1-(4-methoxyphenyl)-6-{3-[(2R)-2-methylpyrrolidin-1-yl]propoxy}-3,4-dihydroquinolin-2(1H)-one]: the IC50 came to 2.7 nM.

Consider `CCOc1ccc(N2C(=O)CCc3cc(OCCCN4CCC[C@H]4C)ccc32)cc1` [Compound No. 5, 1-(4-ethoxyphenyl)-6-{3-[(2R)-2-methylpyrrolidin-1-yl]propoxy}-3,4-dihydroquinolin-2(1H)-one], for which the IC50 is 3.9 nM.

Take `C[C@@H]1CCCN1CCCOc1ccc2c(c1)CCC(=O)N2c1ccc(Cl)cc1` [Compound No. 7, 1-(4-chlorophenyl)-6-{3-[(2R)-2-methylpyrrolidin-1-yl]propoxy}-3,4-dihydroquinolin-2(1H)-one]: the IC50 was determined as 1.6 nM.

As to `C[C@@H]1CCCN1CCCOc1ccc2c(c1)CCC(=O)N2c1ccc(C(F)(F)F)cc1` [Compound No. 8, 6-{3-[(2R)-2-methylpyrrolidin-1-yl]propoxy}-1-[4-(trifluoromethyl)phenyl]-3,4-dihydroquinolin-2(1H)-one], the IC50 was 1.6 nM.

`C[C@@H]1CCCN1CCCOc1ccc2c(c1)CCC(=O)N2c1ccc(OC(F)(F)F)cc1` [Compound No. 9, 6-{3-[(2R)-2-methylpyrrolidin-1-yl]propoxy}-1-[4-(trifluoromethoxy)phenyl]-3,4-dihydroquinolin-2(1H)-one]: the IC50 was 3.5 nM.

On to `C[C@@H]1CCCN1CCCOc1ccc2c(c1)CCC(=O)N2c1ccc(CO)cc1` [Compound No. 10, 1-[4-(hydroxymethyl)phenyl]-6-{3-[(2R)-2-methylpyrrolidin-1-yl]propoxy}-3,4-dihydroquinolin-2(1H)-one], for which the IC50 came to 1.6 nM.

Turning to `COCc1ccc(N2C(=O)CCc3cc(OCCCN4CCC[C@H]4C)ccc32)cc1` [Compound No. 11, 1-[4-(methoxymethyl)phenyl]-6-{3-[(2R)-2-methylpyrrolidin-1-yl]propoxy}-3,4-dihydroquinolin-2(1H)-one], the IC50 was found to be 2.9 nM.

On to `C[C@@H]1CCCN1CCCOc1ccc2c(c1)CCC(=O)N2c1ccc(C(=O)N2CCCC2)cc1` [Compound No. 14, 6-{3-[(2R)-2-methylpyrrolidin-1-yl]propoxy}-1-[4-(pyrrolidin-1-ylcarbonyl)phenyl]-3,4-dihydroquinolin-2(1H)-one], for which the IC50 turned out to be 5.7 nM.

For `CC(=O)c1ccc(N2C(=O)CCc3cc(OCCCN4CCC[C@H]4C)ccc32)cc1` [Compound No. 15, 1-(4-acetylphenyl)-6-{3-[(2R)-2-methylpyrrolidin-1-yl]propoxy}-3,4-dihydroquinolin-2(1H)-one], the IC50 amounted to 3.6 nM.

Take `C[C@@H]1CCCN1CCCOc1ccc2c(c1)CCC(=O)N2c1ccc(C(=O)C2CC2)cc1` [Compound No. 16, 1-[4-(cyclopropylcarbonyl)phenyl]-6-{3-[(2R)-2-methylpyrrolidin-1-yl]propoxy}-3,4-dihydroquinolin-2(1H)-one]: the IC50 was 11 nM.

Regarding `C[C@@H]1CCCN1CCCOc1ccc2c(c1)CCC(=O)N2c1ccc(N2CCOCC2)cc1` [Compound No. 17, 6-{3-[(2R)-2-methylpyrrolidin-1-yl]propoxy}-1-[4-(morpholin-4-yl)phenyl]-3,4-dihydroquinolin-2(1H)-one], the IC50 is 41 nM.
